According to PMC7930822, “Phase I Trial to Evaluate the Tolerance, Pharmacokinetics and Efficacy of the Broad-Spectrum ErbB Family Inhibitor Larotinib Mesylate in Patients With Advanced Solid Tumors” (Frontiers in Pharmacology, 2021):
Counter-ions that a name gives are not always drawn. Like-named read-outs stand apart in the source and are kept apart here.

Assays:
[1] = molecular target: Bruton’s tyrosine kinase (BTK); set-up: method as in data not published; settings: ref data not published; cited from earlier work
EGFR (T790M) = test system: EGFR (T790M); set-up: method as in data not published; settings: ref data not published; cited from earlier work
[2] = test system: EGFR with the L858R mutation; set-up: method as in data not published; settings: ref data not published; cited from earlier work
beagle dogs [3] = test system: beagle dogs; set-up: method as in data not published; settings: ref data not published, cited from earlier work
[4] = urine and fecal excretion recovery, cycle 0; format: in vivo; settings: human, oral
Description: Blood samples (4 ml) for pharmacokinetic analyses were collected in tubes containing K2EDTA anticoagulant. Blood samples were centrifuged at 3,000 rpm for 10 min at 4°C and stored at –80°C until liquid chromatography-mass spectrophotometry (LC-MS/MS) analysis. Urine and fecal samples were collected only when patients were given the150-mg and 220-mg dose levels at sampling time intervals of 0–4, 4–8, 8–12, 12–24, 24–48, 48–72, 72–96 and 96–120 h in cycle 0.
Linear mixed effects model was used to explore the dose exposure relationships. Dose proportionality was concluded if the 95% confidence interval (CI) of the linear regression slope was completely contained within the decision interval (1 + ln (0.8)/ln (8)∼1 + ln (1.25)/ln (8)). For urine and fecal data, the accumulative excretion rates of larotinib and M5 were calculated.
Bioanalysis was performed at Frontage Company (Shanghai, China). Validated high-performance LC-MS/MS method was used to quantify the concentrations of larotinib and M5 in plasma, urine and feces samples. Protein precipitation was employed for plasma, urine and feces processing. Plasma larotinib and M5 concentrations were determined using appropriate calibration curves obtained from standards in the range of 0.5–1,000 ng/ml. The interassay precision of the analysis method were 4.2–5.4% for larotinib and 3.9–4.3% for M5. The interassay accuracy of the analysis method were 100.4–103.4% for larotinib and 102.2–102.9% for M5, respectively.

[5] = test system: EGFR with the L861Q mutation; set-up: method as in data not published; settings: ref data not published; cited from earlier work
[6] = molecular target: B-lymphoid tyrosine kinase (BLK); set-up: method as in data not published; settings: ref data not published; cited from earlier work
HER2 = test system: HER2; set-up: method as in data not published; settings: ref data not published; cited from earlier work
Sprague–Dawley rats = settings: rat, in vivo
Description: (§1) Animal toxicology studies of larotinib mesylate were conducted in both Sprague–Dawley rats and beagle dogs. […] The maximal tolerable doses (MTDs) were 20 and 25 mg/kg in Sprague–Dawley rats and beagle dogs, respectively.
(§2) According to the guidance for clinical trials of antitumor agents published by the Center for Drug Evaluation and Research in China, for cytotoxic antitumor agents, the initial dose in a phase I study can be calculated as 1/10 of the MTD in rodents or 1/6 of the MTD in non-rodent animals ([CFDA, 2012]). For non-cytotoxic antitumor agents, because of their relatively lower toxicity, the initial dose can be set higher. According to the reported preclinical results for larotinib mesylate, the MTD in Sprague–Dawley rats translated to a human equivalent dose of 192 mg/d according to body surface area (calculated by 60 kg body weight), for which 1/10 is 19.2 mg/d ([FDA, 2005]). […] Taking the above results for the toxicology, preclinical pharmacology and pharmacodynamics, and drug specifications (10, 50 and 100 mg) of larotinib mesylate into account, we calculated a recommended starting dose of 50 mg larotinib mesylate for a phase I, first-in-human clinical study, lower than human equivalent 1/6 MTD translated from beagle dogs and near the human equivalent effective dose translated from tumor-bearing mice. […]

beagle dogs [7] = settings: dog, in vivo
Description: as §1, §2

tumor-bearing mice [8] = test system: tumor-bearing mice; set-up: method as in data not published; settings: dose of 18 mg/kg, ref data not published; cited from earlier work
P-glycoprotein = settings: cited from earlier work
wild-type EGFR = test system: wild-type EGFR; set-up: method as in data not published; settings: ref data not published, cited from earlier work
[9] = test system: EGFR with a deletion in the exon 19; set-up: method as in data not published; settings: ref data not published; cited from earlier work
HER4 = test system: HER4; set-up: method as in data not published; settings: ref data not published; cited from earlier work
tumor-bearing mice [10] = assay: preclinical pharmacodynamic study in tumor-bearing mice; format: in vivo; settings: from effective dose of 18 mg/kg in tumor-bearing mice, by body surface area
Description: as §1, §2

[11] = molecular target: receptor-interacting serine/threonine-protein kinase 2 (RIPK2); set-up: method as in data not published; settings: ref data not published; cited from earlier work

## COc1cc2ncnc(Nc3ccc(F)c(Cl)c3)c2cc1OCCCN1C[C@@H]2OCCO[C@@H]2C1 [larotinib mesylate]
[1]
  IC50: 196 nM
EGFR (T790M)
  IC50: 45.2 nM
[2]
  IC50: 0.563 nM
Beagle dogs [3]; daily administration
  lowest observed adverse effect level (LOAEL): 5 mg/kg
Beagle dogs [3]
  maximal tolerable dose (MTD): 25 mg/kg
[4]; feces, 150-mg group, read-out: 0–120 h excretion recovery percentage in feces
  dose excreted: 6.01%
[4]; feces, 220-mg group, read-out: 0–120 h excretion recovery percentage in feces
  dose excreted: 7.89%
[4]; 150-mg group, urine plus feces, read-out: 0–120 h excretion recovery percentage, total
  dose excreted: 7.41%
[4]; 220-mg group, urine plus feces, read-out: 0–120 h excretion recovery percentage, total
  dose excreted: 9.25%
[4]; urine, 150-mg group, read-out: 0–120 h excretion recovery percentage in urine
  dose excreted: 1.4%
[4]; urine, 220-mg group, read-out: 0–120 h excretion recovery percentage in urine
  dose excreted: 1.36%
[5]
  IC50: 0.423 nM
[6]
  IC50: 102 nM
HER2
  IC50: 253 nM
Sprague–Dawley rats
  human equivalent dose of MTD: 192 mg/day
Beagle dogs [7]
  human equivalent dose of MTD: 810 mg/day
tumor-bearing mice [8]
  tumor-inhibiting rate: exceeding 60%
P-glycoprotein
  P-glycoprotein substrate: substrate of P-glycoprotein
wild-type EGFR; EGFR as the main target
  IC50: 0.6 nM
wild-type EGFR; wild-type EGFR
  IC50: 0.611 nM
[9]
  inhibition: potently inhibited
HER4
  IC50: 84 nM
tumor-bearing mice [10]
  human equivalent effective dose: 86.4 mg/day
[11]
  IC50: 26.6 nM
